Results from ChEMBL document CHEMBL1155786, “Synthesis of 3'-deoxy-3'-C-methyl nucleoside derivatives” (Bioorg Med Chem, 2008).
Activity calls are given as the source filed them. The rule behind the calls is not given here.

The compounds below were run on Human immunodeficiency virus (assay: Antiviral activity against HIV at 100 uM).
Format: functional, organism-based

| SMILES | Activity |
| --- | --- |
| C[C@H]1[C@@H](O)[C@H](n2cnc(C(N)=O)c2N)O[C@@H]1CO | inactive |
| C[C@H]1C[C@H](n2cnc(C(N)=O)n2)O[C@@H]1COC(=O)c1ccccc1 | inactive |
| C[C@H]1C[C@H](n2ccc(=O)[nH]c2=O)O[C@@H]1CO | inactive |
| C[C@H]1[C@@H](O)[C@H](n2cnc(C(N)=O)n2)O[C@@H]1COC(=O)c1ccccc1 | inactive |
| C[C@H]1C[C@H](n2cnc(C(N)=O)n2)O[C@@H]1CO | inactive |
| C[C@H]1C[C@H](n2cnc3c(=O)[nH]c(N)nc32)O[C@@H]1CO | inactive |
| Nc1ccn([C@H]2C[C@H](O)[C@@H](CO)O2)c(=O)n1 | inactive |
| Cc1cn([C@H]2C[C@H](C)[C@@H](CO)O2)c(=O)[nH]c1=O | inactive |
| C[C@H]1[C@@H](O)[C@H](n2cnc(C(N)=O)n2)O[C@@H]1CO | inactive |
| C[C@H]1C[C@H](n2cnc3c(N)ncnc32)O[C@@H]1CO | inactive |
